Measured values published in the supplement of paper PMC10307832.

Tests used:
Assay in all cases: relative viability (nuclei count vs DMSO), 5 days (fraction); higher = more cells survive
[1] = compound: CC(C)N(CCCNC(=O)Nc1ccc(C(C)(C)C)cc1)C[C@H]1O[C@@H](n2ccc3c(N)ncnc32)[C@H](O)[C@@H]1O + CS(=O)(=O)CCNCc1ccc(-c2ccc3ncnc(Nc4ccc(OCc5cccc(F)c5)c(Cl)c4)c3c2)o1 [Lapatinib] (partner 2 µM)
How it was run: (§1)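 Relative viability was taken as the ratio of nuclei in treated wells to nuclei in vehicle wells. Lung cancer cell lines in 1536-well plates received compounds by pin tool one day after seeding, either one drug alone or a fixed anchor-drug dose plus five library-drug doses (not always all listed) in √10 steps. Nuclei were counted on 4× images after 5 days of treatment, and values are medians of duplicate plates.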

Shikonin + Phenformin = compound: CC(C)=CC[C@@H](O)C1=CC(=O)c2c(O)ccc(O)c2C1=O [Shikonin] + N=C(N)NC(=N)NCCc1ccccc1 [Phenformin] (partner 250 µM)
How it was run: as §1

[2] = compound: CC(C)N(CCCNC(=O)Nc1ccc(C(C)(C)C)cc1)C[C@H]1O[C@@H](n2ccc3c(N)ncnc32)[C@H](O)[C@@H]1O + O=C(CCCCCCC(=O)Nc1ccccc1)NO [Vorinostat] (partner 1 µM)
How it was run: as §1

Shikonin + Vorinostat = compound: CC(C)=CC[C@@H](O)C1=CC(=O)c2c(O)ccc(O)c2C1=O [Shikonin] + O=C(CCCCCCC(=O)Nc1ccccc1)NO [Vorinostat] (partner 1 µM)
How it was run: as §1

Cell Line | relative viability ([1]; first compound 0.08 µM) | relative viability ([1]; first compound 0.253 µM) | relative viability ([1]; first compound 0.8 µM) | relative viability ([1]; first compound 2.53 µM) | relative viability ([1]; first compound 8 µM) | relative viability (Shikonin + Phenformin; first compound 0.01 µM) | relative viability (Shikonin + Phenformin; first compound 0.1 µM) | relative viability (Shikonin + Phenformin; first compound 0.3162 µM) | relative viability (Shikonin + Phenformin; first compound 1 µM) | relative viability ([2]; first compound 0.08 µM) | relative viability ([2]; first compound 0.253 µM) | relative viability ([2]; first compound 0.8 µM) | relative viability ([2]; first compound 2.53 µM) | relative viability ([2]; first compound 8 µM) | relative viability (Shikonin + Vorinostat; first compound 0.01 µM) | relative viability (Shikonin + Vorinostat; first compound 0.1 µM) | relative viability (Shikonin + Vorinostat; first compound 0.3162 µM) | relative viability (Shikonin + Vorinostat; first compound 1 µM)
SW 1573 | 1.05 | 1.09 | 1.09 | 1.05 | 1.16 | 0.389 | 0.388 | 0.325 | 0.122 | 0.596 | 0.666 | 0.648 | 0.893 | 0.886 | 0.739 | 0.94 | 0.536 | 0.306
LXF-289 | 0.867 | 0.956 | 0.863 | 0.943 | 0.821 | 0.533 | 0.526 | 0.535 | 0.535 | 0.748 | 0.762 | 0.726 | 0.752 | 0.701 | 0.787 | 0.764 | 0.862 | 0.79
RERF-LC-KJ | 0.894 | 0.841 | 0.861 | 0.911 | 0.829 | 0.374 | 0.433 | 0.505 | 0.36 | 0.638 | 0.741 | 0.551 | 0.742 | 0.707 | 0.709 | 0.836 | 0.718 | 0.757
NCI-H727 | 0.922 | 0.821 | 0.804 | 0.973 | 0.686 | 0.523 | 0.604 | 0.579 | 0.543 | 1.12 | 1.23 | 1.16 | 1.04 | 1.17 | 1.32 | 1.44 | 1.27 | 1.14
NCI-H1666 | 0.618 | 0.613 | 0.427 | 0.568 | 0.486 | 0.558 | 0.605 | 0.552 | 0.548 | 1.1 | 1 | 1.02 | 1.01 | 0.934 | 1.07 | 0.96 | 0.966 | 1.12
NCI-H2087 | 1.03 | 1.16 | 0.825 | 1.01 | 0.996 | 0.458 | 0.484 | 0.447 | 0.463 | 0.681 | 0.732 | 0.929 | 0.668 | 0.512 | 0.624 | 0.742 | 0.696 | 0.689
NCI-H1734 | 0.987 | 1.06 | 0.976 | 1.13 | 0.995 | 0.414 | 0.432 | 0.34 | 0.425 | 0.773 | 0.611 | 0.677 | 0.783 | 0.756 | 0.732 | 0.818 | 0.765 | 0.842
NCI-H2228 | 0.971 |  | 1.06 | 0.949 | 0.984 | 0.31 | 0.287 | 0.283 | 0.289 | 0.593 | 0.703 | 0.543 | 0.556 | 0.702 | 0.807 | 0.507 | 0.53 | 0.785
EMC-BAC-2 | 0.9 | 0.916 | 0.915 | 0.929 | 0.82 | 0.516 | 0.607 | 0.569 | 0.517 | 0.465 | 0.416 | 0.461 | 0.409 | 0.401 | 0.431 | 0.465 | 0.439 | 0.659
NCI-H2009 | 1.01 | 0.818 | 0.716 | 0.888 | 0.792 | 0.475 | 0.568 | 0.433 | 0.181 | 0.728 | 0.73 | 0.703 | 0.744 | 0.675 | 0.918 | 0.737 | 0.789 | 0.649
NCI-H647 | 0.961 |  | 0.856 | 0.983 | 0.933 | 0.572 | 0.677 | 0.477 | 0.538 | 0.415 | 0.549 | 0.472 | 0.598 | 0.518 | 0.54 | 0.624 | 0.72 | 0.513
NCI-H661 | 0.441 | 0.467 | 0.519 | 0.404 | 0.523 | 0.251 | 0.292 | 0.275 | 0.291 | 0.77 | 0.834 | 0.812 | 0.809 | 0.785 | 0.837 | 0.833 | 0.812 | 0.736
NCI-H1650 | 0.753 | 0.584 |  | 0.762 | 0.884 | 0.443 | 0.488 | 0.335 | 0.254 | 0.451 | 0.608 | 0.485 | 0.474 | 0.444 | 0.41 | 0.499 | 0.485 | 0.483
NCI-H2023 | 0.735 | 0.425 | 0.752 | 0.787 | 0.592 | 0.352 | 0.386 | 0.452 | 0.341 | 0.605 | 0.608 | 0.576 | 0.584 | 0.45 | 0.645 | 0.772 | 0.703 | 0.736
LOU-NH91 | 0.643 | 0.731 |  | 0.83 | 0.773 | 0.685 | 0.755 | 0.754 | 0.715 | 0.9 | 0.832 |  | 0.943 | 0.869 | 0.921 | 1.02 | 1.04 | 0.957
NCI-H3122 | 1.09 | 0.938 | 1.02 | 1.02 | 1.03 | 0.391 | 0.417 | 0.391 | 0.399 | 0.957 | 1.2 | 0.894 | 0.991 | 0.921 | 1.07 | 0.986 | 1.29 | 0.944
LCLC-97TM1 | 0.906 |  | 1.41 | 0.517 | 1.11 | 0.495 | 0.449 | 0.437 | 0.472 | 0.893 | 0.656 | 0.801 | 0.661 | 0.831 | 0.872 | 0.764 | 1.08 | 0.928
NCI-H650 | 0.921 | 0.889 | 0.775 | 0.791 | 0.871 | 0.462 | 0.462 | 0.447 | 0.426 | 0.414 | 0.444 | 0.459 | 0.426 | 0.401 | 0.425 | 0.418 | 0.465 | 0.439
